In patent US7956074B2, “Aryl-isoxazolo-4-yl-oxadiazole derivatives” (Hoffman-La Roche Inc., priority 2005, dated 2011):

Molecular target: T1, GABA A receptor α5β3γ2 (Homo sapiens, UniProt P18507+P31644)
T1 construct: expressed in transfected cells; host or cells: HEK293 cells, transiently transfected; membranes prepared
Assay: [3H]flumazenil competition binding, human GABA A α5β3γ2
Conditions: competition for [3H]flumazenil (0.5 nM) binding, HEK293 cells expressing human (transiently transfected) α5β3γ2; means of two determinations; read-out: Ki[nM] hα5
In short: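 HEK293 membranes expressing GABA-A receptors (human transiently, rat stably transfected) were used for [3H]flumazenil competition in Krebs-tris buffer, pH 7.5. Incubation ran 1 h at 4 °C to equilibrium, followed by filtration and scintillation counting. Ki values are means of two determinations.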

Structure (SMILES) | Ki [nM]
COc1cc(N2CCOCC2)ccc1-c1nnc(-c2c(-c3cccc(Cl)c3)noc2C)o1 [Example 94, 4-(4-{5-[3-(3-Chloro-phenyl)-5-methyl-isoxazol-4-yl]-[1,3,4]oxadiazol-2-yl}-3-methoxy-phenyl)-morpholine] | 19.3
Cc1onc(-c2ccccc2)c1-c1nnc(-c2ccc(N3CCC(O)CC3)nc2)o1 [Example 140, 5′-[5-(5-Methyl-3-phenyl-isoxazol-4-yl)-[1,3,4]oxadiazol-2-yl]-3,4,5,6-tetrahydro-2H-[1,2′]bipyridinyl-4-ol] | 23.5
Cc1onc(-c2ccccc2)c1-c1nnc(-c2ccc(C(=O)NC3CCOCC3)cc2)o1 [Example 81, 4-[5-(5-Methyl-3-phenyl-isoxazol-4-yl)-[1,3,4]oxadiazol-2-yl]-N-(tetrahydro-pyran-4-yl)-benzamide] | 86
Cc1onc(-c2ccccc2)c1-c1nnc(-c2ccccc2OC(F)F)o1 [Example 42, 2-(2-Difluoromethoxy-phenyl)-5-(5-methyl-3-phenyl-isoxazol-4-yl)-[1,3,4]oxadiazole] | 141
Cc1onc(-c2ccccc2)c1-c1nnc(-c2ccc(N3CCOCC3)cn2)o1 [Example 142, 4-{6-[5-(5-Methyl-3-phenyl-isoxazol-4-yl)-[1,3,4]oxadiazol-2-yl]-pyridin-3-yl}-morpholine] | 17.2
Cc1onc(-c2ccccc2)c1-c1nnc(-c2ccccc2OC(F)(F)F)o1 [Example 43, 2-(5-Methyl-3-phenyl-isoxazol-4-yl)-5-(2-trifluoromethoxy-phenyl)-[1,3,4]oxadiazole] | 131
COc1cc(N2CCOCC2)ccc1-c1nnc(-c2c(-c3ccccc3Cl)noc2C)o1 [Example 97, 4-(4-{5-[3-(2-Chloro-phenyl)-5-methyl-isoxazol-4-yl]-[1,3,4]oxadiazol-2-yl}-3-methoxy-phenyl)-morpholine] | 105
Cc1onc(-c2ccccc2)c1-c1nnc(-c2ccc(S(C)(=O)=O)cc2)o1 [Example 30, 2-(4-Methanesulfonyl-phenyl)-5-(5-methyl-3-phenyl-isoxazol-4-yl)-[1,3,4]oxadiazole] | 226
COc1cc(N2CCOCC2)ccc1-c1nnc(-c2c(-c3ccccc3)noc2N(C)C)o1 [Example 106, {4-[5-(2-Methoxy-4-morpholin-4-yl-phenyl)-[1,3,4]oxadiazol-2-yl]-3-phenyl-isoxazol-5-yl}-dimethyl-amine] | 165
COc1cc(N(S(C)(=O)=O)S(C)(=O)=O)ccc1-c1nnc(-c2c(-c3ccccc3)noc2C)o1 [Example 21, N-{3-Methoxy-4-[5-(5-methyl-3-phenyl-isoxazol-4-yl)-[1,3,4]oxadiazol-2-yl]-phenyl}-bis-methanesulfonyl-amine] | 85
COc1ccc(-c2nnc(-c3c(-c4ccccc4)noc3C)o2)c(OC)n1 [Example 100, 2,6-Dimethoxy-3-[5-(5-methyl-3-phenyl-isoxazol-4-yl)-[1,3,4]oxadiazol-2-yl]-pyridine] | 24
COc1cc(NS(=O)(=O)C(C)C)ccc1-c1nnc(-c2c(-c3ccccc3)noc2C)o1 [Example 63, Propane-2-sulfonic acid {3-methoxy-4-[5-(5-methyl-3-phenyl-isoxazol-4-yl)-[1,3,4]oxadiazol-2-yl]-phenyl}-amide] | 42.8
Cc1onc(-c2ccccc2)c1-c1nnc(-c2ccc3c(ccn3C)c2)o1 [Example 75, 1-Methyl-5-[5-(5-methyl-3-phenyl-isoxazol-4-yl)-[1,3,4]oxadiazol-2-yl]-1H-indole] | 129
COc1cc(NCC2CC2)ccc1-c1nnc(-c2c(-c3ccccc3)noc2CCC2CC2)o1 [Example 18, (4-{5-[5-(2-Cyclopropyl-ethyl)-3-phenyl-isoxazol-4-yl]-[1,3,4]oxadiazol-2-yl}-3-methoxy-phenyl)-cyclopropylmethyl-amine] | 124
COc1cc([N+](=O)[O-])ccc1-c1nnc(-c2c(-c3ccccc3)noc2C)o1 [Example 11, 2-(2-Methoxy-4-nitro-phenyl)-5-(5-methyl-3-phenyl-isoxazol-4-yl)-[1,3,4]oxadiazole] | 171
COC(=O)c1ccc(-c2nnc(-c3c(-c4ccccc4)noc3C)o2)cc1 [Example 71, 4-[5-(5-Methyl-3-phenyl-isoxazol-4-yl)-[1,3,4]oxadiazol-2-yl]-benzoic acid methyl ester] | 289

These reach a lower Ki. Values come first.

Ki [nM] | Structure (SMILES)
13.5 | Cc1onc(-c2ccccc2)c1-c1nnc(-c2cc(F)c(N3CCS(=O)(=O)CC3)cc2F)o1 [Example 120, 4-{2,5-Difluoro-4-[5-(5-methyl-3-phenyl-isoxazol-4-yl)-[1,3,4]oxadiazol-2-yl]-phenyl}-thiomorpholine 1,1-dioxide]
12 | COc1cc(N(C)C)ccc1-c1nnc(-c2c(-c3ccccc3)noc2C)o1 [Example 72, {3-Methoxy-4-[5-(5-methyl-3-phenyl-isoxazol-4-yl)-[1,3,4]oxadiazol-2-yl]-phenyl}-dimethyl-amine]
10.5 | COc1cc(NCC2CCCO2)c(F)cc1-c1nnc(-c2c(-c3ccccc3)noc2C)o1 (racemic) [Example 130, rac-{2-Fluoro-5-methoxy-4-[5-(5-methyl-3-phenyl-isoxazol-4-yl)-[1,3,4]oxadiazol-2-yl]-phenyl}-(tetrahydro-furan-2-ylmethyl)-amine]
8.6 | COc1cc(NCCN2CCCC2)c(F)cc1-c1nnc(-c2c(-c3ccccc3)noc2C)o1 [Example 132, {2-Fluoro-5-methoxy-4-[5-(5-methyl-3-phenyl-isoxazol-4-yl)-[1,3,4]oxadiazol-2-yl]-phenyl}-(2-pyrrolidin-1-yl-ethyl)-amine]
7.9 | Cc1onc(-c2ccccc2)c1-c1nnc(-c2ccc3[nH]c(=O)[nH]c3c2)o1 [Example 34, 5-[5-(5-Methyl-3-phenyl-isoxazol-4-yl)-[1,3,4]oxadiazol-2-yl]-1,3-dihydro-benzoimidazol-2-one]
7.5 | COc1cc(N)ccc1-c1nnc(-c2c(-c3ccccc3)noc2C)o1 [Example 13, 3-Methoxy-4-[5-(5-methyl-3-phenyl-isoxazol-4-yl)-[1,3,4]oxadiazol-2-yl]-phenylamine]
4.8 | COc1cc(-n2ccnn2)ccc1-c1nnc(-c2c(-c3ccccc3)noc2C)o1 [Example 86, 2-(2-Methoxy-4-[1,2,3]triazol-1-yl-phenyl)-5-(5-methyl-3-phenyl-isoxazol-4-yl)-[1,3,4]oxadiazole]
4.2 | COc1cc(N2CCOCC2)ccc1-c1nnc(-c2c(-c3ccccc3)noc2C)o1 [Example 68, 4-{3-Methoxy-4-[5-(5-methyl-3-phenyl-isoxazol-4-yl)-[1,3,4]oxadiazol-2-yl]-phenyl}-morpholine]
3.2 | COc1cc(N2CCS(=O)(=O)CC2)ccc1-c1nnc(-c2c(-c3ccccc3)noc2C)o1 [Example 28, 4-{3-Methoxy-4-[5-(5-methyl-3-phenyl-isoxazol-4-yl)-[1,3,4]oxadiazol-2-yl]-phenyl}-thiomorpholine 1,1-dioxide]
2.3 | CC(C)c1onc(-c2ccccc2)c1-c1nnc(-c2ccc3c(c2)n(C)c(=O)n3C)o1 [Example 53, 5-[5-(5-Isopropyl-3-phenyl-isoxazol-4-yl)-[1,3,4]oxadiazol-2-yl]-1,3-dimethyl-1,3-dihydro-benzoimidazol-2-one]
1.7 | COc1cc(NCCS(C)(=O)=O)c(F)cc1-c1nnc(-c2c(-c3ccccc3)noc2C)o1 [Example 127, {2-Fluoro-5-methoxy-4-[5-(5-methyl-3-phenyl-isoxazol-4-yl)-[1,3,4]oxadiazol-2-yl]-phenyl}-(2-methanesulfonyl-ethyl)-amine]
